Source: patent US9512175B2, “Macrocyclic inhibitors of flaviviridae viruses” (Gilead Sciences, Inc., priority 2012, dated 2016)
Where two headings read alike, the source gives them in different places.

Columns and labels:
cyclophilin A = cyclophilin A (Homo sapiens, UniProt P62937); assay: Cyclophilin A TR-FRET competitive binding assay; conditions: IC50 ranges, competition with CsA-Cy5 for His-tagged CypA, two-hour incubation
Description: Cyclophilin A TR-FRET Competitive Binding Assay
Inhibitor potency was measured using a competitive binding assay with a time-resolved fluorescence resonance energy transfer (TR-FRET) readout. […] An IC50 value was calculated using a four-parameter logistic fit.

[1] = tested on: HCV replicon (Replicon 1a); assay: anti-HCV activity in Huh-7 cell line harboring a HCV replicon (Replicon 1a); assay type: cell-based; conditions: for inhibition at 1 µM: Hepatitis C virus, Huh-7, 72 h
[2] = read-out: Replicon 1a % inhibition at 1 μM, 1 μM, human hepatoma Huh-7 HCV replicon cells, 3 days, luciferase readout
[3] = read-out: Replicon 1a % inhibition at 1 μM

Sequence of cyclophilin A (P62937 whole entry, species assumed): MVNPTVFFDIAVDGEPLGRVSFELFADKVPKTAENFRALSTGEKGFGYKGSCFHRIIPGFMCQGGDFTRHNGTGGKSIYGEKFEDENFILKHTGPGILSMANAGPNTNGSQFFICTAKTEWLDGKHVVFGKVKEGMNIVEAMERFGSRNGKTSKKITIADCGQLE

| Structure (SMILES) | IC50 (cyclophilin A; read-out: TR-FRET) [nM] | inhibition at 1 µM [1, 2] [%] | further results |
| --- | --- | --- | --- |
| CC(C)[C@@H]1NC(=O)C(C)(C)/C=C/c2ccc3c(=O)n(C)c(nc3c2)[C@@H](C)OC(=O)C2CCCN(N2)C(=O)[C@@H](C)NC1=O (stereo partly drawn) [Compound 147] | < 100 | 94 |  |
| CC(C)[C@@H]1NC(=O)[C@H](C)Oc2ccc(cc2)-c2cccc(c2)[C@@H](C)OC(=O)[C@@H]2CCCN(N2)C(=O)[C@H](C)NC1=O [Compound 39] | < 100 | 98 |  |
| CC(C)[C@@H]1NC(=O)[C@H](C)[C@H](OCC(F)(F)F)CC/C=C/c2cccc(c2)[C@@H](C)NC(=O)[C@@H]2CCCN(N2)C(=O)[C@H](C)NC1=O [Compound 2, (E)-(2R,5S,11 S,14S,17R,18R)-14-Isopropyl-2,11,17-trimethyl-18-(2,2,2-trifluoro-ethoxy)-3,9,12,15,28-pentaaza-tricyclo[21.3.1.1*5,9*]octacosa-1(26),21,23(27),24-tetraene-4,10,13,16-tetraone] | 101 to 1000 | 63 |  |
| Cc1c2ccc3c(Cl)cc(nc13)[C@@H](C)OC(=O)[C@@H]1CCCN(N1)C(=O)[C@H](C)NC(=O)[C@H](C(C)C)NC(=O)C(C)(C)/C=C/2 [Compound 164] | < 100 |  |  |
| CC(C)[C@H]1C(=O)N[C@@H](C)C(=O)N2CCC[C@H](N2)C(=O)N[C@H](C)c2ccc3ccc(cc3n2)/C=C/C2(C)CCN1C2=O [Compound 84] | < 100 | 63 |  |
| CC(C)[C@@H]1NC(=O)[C@H](C)CCCCOc2ccc(F)c(c2)[C@@H](C)OC(=O)[C@@H]2CCCN(N2)C(=O)[C@H](C)NC1=O [Compound 36] | < 100 | 73 |  |
| CC(C)[C@@H]1NC(=O)C(C)(C)/C=C/c2ccc3ccc(nc3c2)[C@@H](C)NC(=O)[C@@H]2CCCN(N2)C(=O)[C@H](C)NC1=O [Compound 111] | < 100 | 87 |  |
| CC(C)[C@@H]1NC(=O)[C@@H](C)Oc2ccc(cc2)-c2cccc(c2)[C@@H](C)OC(=O)[C@@H]2CCCN(N2)C(=O)[C@H](C)NC1=O [Compound 40] | < 100 | 96 |  |
| CC(C)[C@@H]1NC(=O)C/C=C/c2cc3cc(ccc3cn2)[C@@H](C)NC(=O)[C@@H]2CCCN(N2)C(=O)[C@H](C)NC1=O [Compound 11] | < 100 | 6 |  |
| CC(C)[C@@H]1NC(=O)[C@H](C)CCCc2cc3cc(ccc3cn2)[C@@H](C)OC(=O)[C@@H]2CCCN(N2)C(=O)[C@H](C)NC1=O [Compound 46] | < 100 | 90 |  |
| CC(C)[C@@H]1NC(=O)C(C)(C)/C=C/c2ccc3c(Cl)cc(nc3c2)[C@@H](C)OC(=O)[C@@H]2CCCN(N2)C(=O)[C@H](C)NC1=O [Compound 138] | < 100 | 100 |  |
| C[C@@H]1NC(=O)[C@H](CCn2ccnn2)NC(=O)C(C)(C)/C=C/c2cc3cc(ccc3cn2)[C@@H](C)OC(=O)[C@@H]2CCCN(N2)C1=O [Compound 50] | 101 to 1000 |  | inhibition at 1 µM [1, 3]: 12% |
| C[C@@H]1NC(=O)[C@H](C2CCCCC2)NC(=O)C/C=C/c2cc3cc(ccc3cn2)[C@@H](C)OC(=O)[C@@H]2CCCN(N2)C1=O [Compound 53] | 101 to 1000 | 89 |  |
| CC(C)[C@@H]1NC(=O)/C=C\c2cc3cc(ccc3cn2)[C@@H](C)NC(=O)[C@@H]2CCCN(N2)C(=O)[C@H](C)NC1=O [Compound 12] |  | 0 |  |
| CO[C@@H]1CC/C=C/c2ccc3c(c2)[C@@H](CC3)N(C)C(=O)[C@@H]2CCCN(N2)C(=O)[C@H](C)NC(=O)[C@H](C(C)C)NC(=O)[C@@H]1C [Compound 25] |  |  | IC50 (cyclophilin A; TR-FRET): 101 to 1000 nM; inhibition at 1 µM [1, 3]: 71% |
| CC(C)[C@@H]1NC(=O)C2(/C=C/c3cc4cc(ccc4cn3)[C@@H](C)OC(=O)[C@@H]3CCCN(N3)C(=O)[C@H](C)NC1=O)CCOCC2 [Compound 59] | < 100 |  |  |
| CC(C)[C@@H]1NC(=O)C(C)(C(C)O)/C=C/c2ccc3ccc(nc3c2)[C@@H](C)OC(=O)[C@@H]2CCCN(N2)C(=O)[C@H](C)NC1=O (stereo partly drawn) [Compound 90] | < 100 |  | Replicon 1a % inhibition at 1 μM ([1]; 1 μM, human hepatoma Huh-7 HCV replicon cells, 3 days, luciferase readout): 100% |
| CC(C)[C@@H]1NC(=O)C(C)(C)/C=C/c2ccc3cnc(cc3c2)[C@@H](C)OC(=O)[C@@H]2CCCN(N2)C(=O)[C@H](C)NC1=O [Compound 17] | < 100 | 100 |  |
| CC(C)[C@@H]1NC(=O)C(C)(C)/C=C/c2ccc3ccc(nc3c2F)[C@@H](C)OC(=O)[C@@H]2CCCN(N2)C(=O)[C@H](C)NC1=O [Compound 170] | < 100 | 100 |  |
| CC(C)OC(=O)OCO[C@@H](C)[C@H]1/C=C/c2ccc3ccc(nc3c2)[C@@H](C)OC(=O)[C@@H]2CCCN(N2)C(=O)[C@H](C)NC(=O)[C@H](C(C)C)NC1=O [Compound 168] | < 100 | 100 |  |
| CC(C)[C@@H]1NC(=O)C2(/C=C/c3ccc4ccc(nc4c3)[C@@H](C)OC(=O)[C@@H]3CCCN(N3)C(=O)[C@H](C)NC1=O)CCN(S(C)(=O)=O)CC2 [Compound 130] | < 100 | 100 |  |
| CC(C)[C@@H]1NC(=O)Cc2cccc(c2)-c2cc3cc(ccc3cn2)[C@@H](C)OC(=O)[C@@H]2CCCN(N2)C(=O)[C@H](C)NC1=O [Compound 65] | < 100 | 92 |  |

| Structure (SMILES) | IC50 (cyclophilin A; read-out: TR-FRET) [nM] | inhibition at 1 µM [1, 2] [%] | further results |
| --- | --- | --- | --- |
| CC1/C=C/c2cc3cc(ccc3cn2)[C@@H](C)OC(=O)[C@@H]2CCCN(N2)C(=O)[C@H](C)NC(=O)[C@H](C(C)C)NC1=O (stereo partly drawn) [Compound 20] | < 100 | 99 |  |
| CC(C)[C@@H]1NC(=O)C2(/C=C/c3ccc4ccc(nc4c3)[C@@H](C)OC(=O)[C@@H]3CCCN(N3)C(=O)[C@H](C)NC1=O)CCN(CC#N)CC2 [Compound 131] | < 100 |  | inhibition at 1 µM [1, 3]: 77% |
| COC[C@@H]1NC(=O)[C@H](C(C)C)NC(=O)C(C)(C)/C=C/c2ccc3ccc(nc3c2)[C@@H](C)OC(=O)[C@@H]2CCCN(N2)C1=O (single isomer, unassigned) [Compound 117] | < 100 | 100 |  |
| CC(C)[C@@H]1NC(=O)C(C)(C)/C=C/c2cc3cc(cnc3cn2)[C@@H](C)OC(=O)[C@@H]2CCCN(N2)C(=O)[C@H](C)NC1=O [Compound 66] | < 100 |  |  |
| CC(C)[C@@H]1NC(=O)C(C)(C)/C=C/c2ccc3c(C#N)cc(nc3c2)[C@@H](C)OC(=O)[C@@H]2CCCN(N2)C(=O)[C@H](C)NC1=O [Compound 140] | 101 to 1000 |  |  |
| C#CC[C@@H]1NC(=O)C(C)(C)/C=C/c2cc3cc(ccc3cn2)[C@@H](C)OC(=O)[C@@H]2CCCN(N2)C(=O)[C@H](C)NC1=O [Compound 51] | < 100 |  |  |
| CC(C)[C@@H]1NC(=O)C(C)(C)CCc2cc3cc(ccc3cn2)[C@@H](C)OC(=O)[C@@H]2CCCN(N2)C(=O)[C@H](C)NC1=O [Compound 74] |  | 95 |  |
| CC(C)[C@@H]1NC(=O)C2(/C=C/c3ccc4ccc(nc4c3)[C@@H](C)OC(=O)[C@@H]3CCCN(N3)C(=O)[C@H](C)NC1=O)CCN(Cc1ccccc1)CC2 [Compound 128] | < 100 |  |  |
| CC(C)[C@@H]1NC(=O)C/C=C/c2ccc3ccc(nc3c2)[C@@H](C)OC(=O)[C@@H]2CCCN(N2)C(=O)[C@H](C)NC1=O [Compound 24] |  | 99 |  |
| CC(C)[C@@H]1NC(=O)CCCc2cc3cc(ccc3cn2)[C@@H](C)OC(=O)[C@@H]2CCCN(N2)C(=O)[C@H](C)NC1=O [Compound 10] |  | 28 |  |
| CC(C)[C@@H]1NC(=O)C(C)(C(C)O)/C=C/c2ccc3ccc(nc3c2)[C@@H](C)OC(=O)[C@@H]2CCCN(N2)C(=O)[C@H](C)NC1=O (single isomer, unassigned) [Compound 87] | < 100 |  |  |
| CC(C)[C@@H]1NC(=O)C([C@H](C)O)/C=C/c2ccc3ccc(cc3c2)[C@@H](C)OC(=O)[C@@H]2CCCN(N2)C(=O)[C@@H](C)NC1=O (stereo partly drawn) [Compound 145] | < 100 |  |  |
| CC(C)[C@@H]1NC(=O)C2(/C=C/c3cc4cc(ccc4cn3)[C@@H](C)OC(=O)[C@@H]3CCCN(N3)C(=O)[C@H](C)NC1=O)CC2 [Compound 58] | < 100 |  |  |
| CC(C)[C@@H]1NC(=O)CCC/C=C/c2cc3cc(ccc3cn2)[C@@H](C)OC(=O)[C@@H]2CCCN(N2)C(=O)[C@H](C)NC1=O [Compound 61] |  | 72 |  |
| CC(C)[C@@H]1NC(=O)CCCC/C=C/c2cc3cc(ccc3cn2)[C@@H](C)OC(=O)[C@@H]2CCCN(N2)C(=O)[C@H](C)NC1=O [Compound 63] |  | 80 |  |
| CC(C)[C@@H]1NC(=O)[C@@H]([C@H](C)O)/C=C/c2ccc3ccc(nc3c2)[C@@H](C)OC(=O)[C@@H]2CCCN(N2)C(=O)[C@H](C)NC1=O [Compound 31] |  | 98 |  |
| CC(C)[C@@H]1NC(=O)CCCc2ccc3ccc(cc3c2)[C@@H](C)OC(=O)[C@@H]2CCCN(N2)C(=O)[C@H](C)NC1=O [Compound 71] | 101 to 1000 |  |  |
| CC(C)[C@@H]1NC(=O)C2(/C=C/c3ccc4ccc(nc4c3)[C@@H](C)OC(=O)[C@@H]3CCCN(N3)C(=O)[C@H](C)NC1=O)CCC(F)(F)CC2 [Compound 121] | < 100 |  |  |
| CC(C)[C@@H]1NC(=O)C(C)(C2CCOC2)/C=C/c2ccc3ccc(nc3c2)[C@@H](C)OC(=O)[C@@H]2CCCN(N2)C(=O)[C@H](C)NC1=O (stereo partly drawn) [Compound 116] | < 100 |  |  |
| C[C@@H]1NC(=O)[C@H](CCN=[N+]=[N-])NC(=O)C(C)(C)/C=C/c2cc3cc(ccc3cn2)[C@@H](C)OC(=O)[C@@H]2CCCN(N2)C1=O [Compound 49] | < 100 |  |  |
| CC(C)[C@@H]1NC(=O)C2(/C=C/c3ccc4ccc(nc4c3)[C@@H](C)OC(=O)[C@@H]3CCCN(N3)C(=O)[C@H](C)NC1=O)COC(C)(C)OC2 [Compound 75] | < 100 |  |  |
| COc1cc2nc3cc(ccc13)/C=C/C(C)(C)C(=O)N[C@@H](C(C)C)C(=O)N[C@@H](C)C(=O)N1CCC[C@H](N1)C(=O)O[C@@H]2C [Compound 139] | < 100 |  |  |
